Reference: EP4603105A1, “PHARMACEUTICAL COMPOSITION CONTAINING CYCLIC COMPOUND HAVING SELECTIVE KRAS INHIBITORY EFFECT AGAINST HRAS AND NRAS” (CHUGAI SEIYAKU KABUSHIKI KAISHA, priority 2022, dated 2024)
Where two headings read alike, the source gives them in different places.

Columns and labels:
[1] = target: HRAS wild-type protein (Homo sapiens, UniProt P01112); assay: Binding to HRAS by surface plasmon resonance (SPR), KD and KD ratio to KRAS
How it was run: (§1)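 Captured GDP-RAS (~100–300 RU) was exposed to increasing compound concentrations, 75 s per step, in running buffer with 10 µM GDP, 10 mM MgCl2 and 4% DMSO at pH 7.4.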

[2] = target: GDP-bound KRAS wild-type protein (Homo sapiens, UniProt P01116); assay: Binding to KRAS by surface plasmon resonance (SPR), dissociation constant KD
Chain of GDP-bound KRAS wild-type protein (P01116 1-188 isoform P01116-2): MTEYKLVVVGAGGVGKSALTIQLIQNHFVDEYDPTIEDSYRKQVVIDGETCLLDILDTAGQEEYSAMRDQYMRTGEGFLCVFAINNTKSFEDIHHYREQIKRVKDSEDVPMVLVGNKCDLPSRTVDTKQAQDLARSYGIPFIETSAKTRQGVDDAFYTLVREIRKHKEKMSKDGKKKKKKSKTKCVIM
How it was run: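 Read-out is KD from 1:1 fitting of single-cycle kinetics sensorgrams, blank-cycle and reference-surface corrected. Proteins were GDP-loaded, biotinylated Avi-fusions freshly captured each cycle at roughly 100–300 RU. Runs were at 30°C in HBS pH 7.4 with MgCl2, GDP and 4% DMSO.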

[3] = target: GDP-bound NRAS wild-type protein (Homo sapiens, UniProt P01111); assay: Binding to NRAS by surface plasmon resonance (SPR), KD and KD ratio to KRAS
Chain of GDP-bound NRAS wild-type protein (P01111 whole entry): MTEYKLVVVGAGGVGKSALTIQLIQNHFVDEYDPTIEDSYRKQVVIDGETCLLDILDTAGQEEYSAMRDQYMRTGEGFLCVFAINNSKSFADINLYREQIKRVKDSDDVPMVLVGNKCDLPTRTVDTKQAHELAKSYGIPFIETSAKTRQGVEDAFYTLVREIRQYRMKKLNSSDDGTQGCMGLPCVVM
How it was run: as §1

[4] = test system: human lung cancer strain NCI-H441; assay: NCI-H441 cell proliferation inhibitory activity (CellTiter-Glo, 4 days); format: cell-based; details: read-out: NCl-H441 IC50
How it was run: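 Step one: dispense the test compound in serial DMSO dilutions. Step three: add the reagent and measure […].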

[5] = ratio of KD for HRAS wild-type protein to KD for KRAS
[6] = ratio of KD for GDP-bound NRAS wild-type protein to KD for KRAS
[7] = ratio of KD with respect to HRAS wild-type protein to KD with respect to KRAS
[8] = Single Cycle Kinetics, 1:1 binding model
[9] = ratio of KD with respect to GDP-bound NRAS wild-type protein to KD with respect to KRAS
[10] = 50% proliferation inhibitory concentration, four days

Chain of HRAS wild-type protein (P01112 whole entry): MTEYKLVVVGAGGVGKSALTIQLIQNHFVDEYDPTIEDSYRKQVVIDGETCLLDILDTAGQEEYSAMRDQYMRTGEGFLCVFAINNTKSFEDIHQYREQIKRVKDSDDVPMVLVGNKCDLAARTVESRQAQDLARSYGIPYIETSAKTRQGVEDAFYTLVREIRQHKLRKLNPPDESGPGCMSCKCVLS

Compound	Kd ([2]; 1:1 binding model) [nM]	IC50 ([4]; NCI-H441 cells, 4 days) [nM]	Kd ([2]; Single Cycle Kinetics) [nM]	Kd [2, 8] [nM]	IC50 [4, 10] [nM]	HRAS /KRAS [1, 5]	NRAS /KRAS [3, 6]	HRAS /KRAS [1, 7]	NRAS /KRAS [3, 9]
CCC[C@H]1C(=O)N[C@@H]([C@@H](C)CC)C(=O)N2CCC[C@H]2C(=O)N(C)[C@H]2C/C=C\CCN(C2=O)[C@@H](Cc2ccc(C)cc2)C(=O)N(C)CC(=O)N[C@@H](CCc2ccc(Cl)c(Cl)c2)C(=O)N2C[C@H](OC(C)C)C[C@H]2C(=O)NC2(CC(C)(C)C2)C(=O)N(C)[C@@H](C(CC)CC)C(=O)N(C)[C@H](C(=O)N(C)C)CC(=O)N1C [PP2641]	2	98.6				A (a compound having 10 or more and less than 20 is denoted as A)	AA (a compound having 20 or more is denoted as AA)		
CCOC[C@H]1C(=O)N[C@@H]([C@@H](C)CC)C(=O)N(C)CC(=O)N(C)[C@H]2C/C=C\CCN(C2=O)[C@@H](Cc2ccc(C(F)(F)F)cc2)C(=O)N(C)CC(=O)N[C@@H](CCc2ccc(C(F)(F)F)c(OC)c2)C(=O)N2C[C@@H](C)C[C@H]2C(=O)N(C)C2(CCC2)C(=O)N(C)[C@@H](C2CCCC2)C(=O)N(C)[C@H](C(=O)N(C)C)CC(=O)N1C [PP2359]	0.02	7.6				B (a compound having 3 or more and less than 10 is denoted as B)	A (a compound having 10 or more and less than 20 is denoted as A)		
CCCC[C@H]1C(=O)N[C@@H]([C@@H](C)CC)C(=O)N(C2CC2)CC(=O)N(C)[C@H]2C/C=C\CCN(C2=O)[C@@H](Cc2ccc(C)cc2)C(=O)N(C)CC(=O)N[C@@H](CCc2ccc(C(F)(F)F)c(OC)c2)C(=O)N2C[C@H](OCC)C[C@H]2C(=O)OC2(CCC2)C(=O)N(C)[C@@H](C2CCCC2)C(=O)N(C)[C@H](C(=O)N(C)C)CC(=O)N1C [PP3384]		18.2	1.2			B (a compound having 3 or more and less than 10 is denoted as B)	A (a compound having 10 or more and less than 20 is denoted as A)		
CCO[C@@H]1C[C@H]2C(=O)OC3(CCC3)C(=O)N(C)[C@@H](C3CCCC3)C(=O)N(C)[C@H](C(=O)N(C)C)CC(=O)N(C)[C@@H](CC(C)C)C(=O)N[C@@H]([C@@H](C)CC)C(=O)N(C)CC(=O)N(C)[C@H]3C/C=C\CCN(C3=O)[C@@H](Cc3ccc(C(F)(F)F)cc3)C(=O)N(C)CC(=O)N[C@@H](CCc3ccc(C(F)(F)F)c(OC)c3)C(=O)N2C1 [PP3364]		8.2	0.16			A (a compound having 10 or more and less than 20 is denoted as A)	A (a compound having 10 or more and less than 20 is denoted as A)		
C#CC[C@H]1C(=O)N[C@@H]([C@@H](C)CC)C(=O)N(C2CC2)CC(=O)N(C)[C@H]2C/C=C\CCN(C2=O)[C@@H](Cc2ccc(C)cc2)C(=O)N(C)CC(=O)N[C@@H](CCc2ccc(C(F)(F)F)c(OC)c2)C(=O)N2C[C@H](OCC)C[C@H]2C(=O)N(C)C2(CCC2)C(=O)N(C)[C@@H](C2CCCC2)C(=O)N(C)[C@H](C(=O)N(C)C)CC(=O)N1C [PP3248]		4.5	0.078			A (a compound having 10 or more and less than 20 is denoted as A)	A (a compound having 10 or more and less than 20 is denoted as A)		
CCC[C@H]1C(=O)N[C@@H]([C@@H](C)CC)C(=O)N2CCCC[C@H]2C(=O)N(C)[C@H]2C/C=C\CCN(C2=O)[C@@H](Cc2ccc(C(F)(F)F)cc2)C(=O)N(C)CC(=O)N[C@@H](CCc2ccc(C(F)(F)F)c(OC)c2)C(=O)N2C[C@H](OCC)C[C@H]2C(=O)N(C)C2(CCC2)C(=O)N(C)[C@@H](C2CCCC2)C(=O)N(C)[C@H](C(=O)N(C)C)CC(=O)N1C [PP3270]		13.9	0.43			B (a compound having 3 or more and less than 10 is denoted as B)	A (a compound having 10 or more and less than 20 is denoted as A)		
CCO[C@@H]1C[C@H]2C(=O)NC3(CCC3)C(=O)N(C)[C@@H](C3CCCC3)C(=O)N(C)[C@H](C(=O)N3CCOCC3)CC(=O)N(C)[C@@H](CC3CC3)C(=O)N[C@@H]([C@@H](C)CC)C(=O)N(C)CC(=O)N(C)[C@H]3C/C=C\CCN(C3=O)[C@@H](Cc3ccc(C)cc3)C(=O)N(C)CC(=O)N[C@@H](CCc3cc(F)c(C(F)(F)F)c(F)c3)C(=O)N2C1 [PP1408]				0.22	37.6			A (a compound having 10 or more and less than 20 is denoted as A)	A (a compound having 10 or more and less than 20 is denoted as A)
CCCC[C@H]1C(=O)N[C@@H]([C@@H](C)CC)C(=O)N(C)CC(=O)N(C)[C@H]2C/C=C\CCN(C2=O)[C@@H](Cc2ccc(C(F)(F)F)cc2)C(=O)N(C)CC(=O)N[C@@H](CCc2ccc(C(F)(F)F)c(OC)c2)C(=O)N2C[C@H](OCC)C[C@H]2C(=O)OC2(CCC2)C(=O)N(C)[C@@H](C2CCCC2)C(=O)N(C)[C@H](C(=O)N(C)C)CC(=O)N1C [PP3367]		8.5	0.18			A (a compound having 10 or more and less than 20 is denoted as A)	A (a compound having 10 or more and less than 20 is denoted as A)		
CCO[C@@H]1C[C@H]2C(=O)NC3(CCC3)C(=O)N(C)[C@@H](C3CCCC3)C(=O)N(C)[C@H](C(=O)N3CCCCC3)CC(=O)N(C)[C@@H](CC(C)C)C(=O)N[C@@H]([C@@H](C)CC)C(=O)N(C)CC(=O)N(C)[C@H]3C/C=C\CCN(C3=O)[C@@H](Cc3ccc(C(F)(F)F)cc3)C(=O)N(C)CC(=O)N[C@@H](CCc3cc(F)c(C(F)(F)F)c(F)c3)C(=O)N2C1 [PP1290]				0.24	15.4			A (a compound having 10 or more and less than 20 is denoted as A)	AA (a compound having 20 or more is denoted as AA)
CCC[C@H]1C(=O)N[C@@H](C2CCCC2)C(=O)N(C)CC(=O)N(C)[C@H]2C/C=C\CCN(C2=O)[C@@H](Cc2ccc(C(F)(F)F)cc2)C(=O)N(C)CC(=O)N[C@@H](CCc2ccc(C(F)(F)F)c(Cl)c2)C(=O)N2CC3(CC3)C[C@H]2C(=O)N(C)C2(CCC2)C(=O)N(C)[C@@H](C(CC)CC)C(=O)N(C)[C@H](C(=O)N(C)C)CC(=O)N1C [PP3321]		8	0.85			A (a compound having 10 or more and less than 20 is denoted as A)	AA (a compound having 20 or more is denoted as AA)		

More lines, main results first:

Kd ([2]; 1:1 binding model) [nM]	IC50 ([4]; NCI-H441 cells, 4 days) [nM]	Kd ([2]; Single Cycle Kinetics) [nM]	Kd [2, 8] [nM]	IC50 [4, 10] [nM]	Compound	HRAS /KRAS [1, 5]	NRAS /KRAS [3, 6]	HRAS /KRAS [1, 7]	NRAS /KRAS [3, 9]
1.6	87.2				CCOC[C@H]1C(=O)N[C@@H]([C@@H](C)CC)C(=O)N(C)CC(=O)N(C)[C@H]2C/C=C\CCN(C2=O)[C@@H](CC2CCC(F)(F)CC2)C(=O)N(C)CC(=O)N[C@@H](CCc2cc(F)c(C(F)(F)F)c(F)c2)C(=O)N2C[C@@H](C)C[C@H]2C(=O)NC2(CC(C)(C)C2)C(=O)N(C)[C@@H](C(CC)CC)C(=O)N(C)[C@H](C(=O)N(C)C)CC(=O)N1C [PP2462]	A (a compound having 10 or more and less than 20 is denoted as A)	A (a compound having 10 or more and less than 20 is denoted as A)		
			0.28	35.6	CCO[C@@H]1C[C@H]2C(=O)NC3(CCC3)C(=O)N(C)[C@@H](C(CC)CC)C(=O)N(C)[C@H](C(=O)N(C)C)CC(=O)N(C)[C@@H](CC3CCCC3)C(=O)N[C@@H]([C@@H](C)CC)C(=O)N(C)CC(=O)N(C)[C@H]3C/C=C\CCN(C3=O)[C@@H](Cc3ccc(C(F)(F)F)cc3)C(=O)N(C)CC(=O)N[C@@H](CCc3ccc(C(F)(F)F)c(OC)c3)C(=O)N2C1 [PP1212]			A (a compound having 10 or more and less than 20 is denoted as A)	AA (a compound having 20 or more is denoted as AA)
	15	0.11			CCO[C@@H]1C[C@H]2C(=O)NC3(CC(C)(C)C3)C(=O)N(C)[C@@H](C3CCCC3)C(=O)N(C)[C@H](C(=O)N(C)C)CC(=O)N[C@@H](CC(C)C)C(=O)N[C@@H]([C@@H](C)CC)C(=O)N(C)CC(=O)N(C)[C@H]3C/C=C\CCN(C3=O)[C@@H](Cc3ccc(C(F)(F)F)cc3)C(=O)N(C)CC(=O)N[C@@H](CCc3cc(F)c(C(F)(F)F)c(F)c3)C(=O)N2C1 [PP3455]	A (a compound having 10 or more and less than 20 is denoted as A)	A (a compound having 10 or more and less than 20 is denoted as A)		
0.072	6.3				CCOC[C@H]1C(=O)N[C@@H]([C@@H](C)CC)C(=O)N(C)CC(=O)N(C)[C@H]2C/C=C\CCN(C2=O)[C@@H](Cc2ccc(C)cc2)C(=O)N(C)CC(=O)N[C@@H](CCc2ccc(C(F)(F)F)c(Cl)c2)C(=O)N2C[C@H](OCC)C[C@H]2C(=O)NC2(CC(C)(C)C2)C(=O)N(C)[C@@H](C2CCCC2)C(=O)N(C)[C@H](C(=O)N(C)C)CC(=O)N1C [PP2395]	B (a compound having 3 or more and less than 10 is denoted as B)	A (a compound having 10 or more and less than 20 is denoted as A)		
1.8	127				CCO[C@@H]1C[C@H]2C(=O)NC3(CC(C)(C)C3)C(=O)N(C)[C@@H](C(CC)CC)C(=O)N(C)[C@H](C(=O)N(C)C)CC(=O)N(C)[C@@H](C(C)C)C(=O)N[C@@H]([C@@H](C)CC)C(=O)N(C)CC(=O)N(C)[C@H]3C/C=C\CCN(C3=O)[C@@H](CC3CCC(F)(F)CC3)C(=O)N(C)CC(=O)N[C@@H](CCc3ccc(C(F)(F)F)c(OC)c3)C(=O)N2C1 [PP2477]	A (a compound having 10 or more and less than 20 is denoted as A)	A (a compound having 10 or more and less than 20 is denoted as A)		
